Results as given in patent US5929236A, “2-substituted morpholine and thiomorpholine derivatives as GABA-B antagonists” (Schering Corporation, priority 1995, dated 1999).

Assays:
GABAB receptors = target: T1, GABAB receptors (Rattus norvegicus, UniProt Q9Z0U4); experiment: GABAB Receptor Binding Assay ([3H]GABA, rat brain synaptosomes)
T1 construct: Rat brain synaptosomes are used as a source of GABAB receptors; from tissue; host or cells: rat brain synaptosomes
Procedure: GABAB Receptor Binding Assay
The percentage inhibition of GABA binding to GABAB receptors is measured by tritiated GABA ([^3 H]GABA) determination of the degree of binding by scintillation counting. Rat brain synaptosomes are used as a source of GABAB receptors. An incubation medium is prepared from the following: 20 μg/mL of the compound to be tested as a solution in 1% DMSO/water; 5 nM [^3 H]GABA; 50 mM Tris buffer (pH 7.5); and 2.5 mM CaCl2. The medium also contains 40 μM isoguvacine to selectively block binding to GABAA receptors. The synaptosome (200 μg/mL) is added to the incubation medium and incubated for 30 minutes at 20° C. The incubation is terminated by filtration and counted to determine the percentage inhibition of [^3 H]-GABA binding. The results are reported as IC50 values for those compounds inhibiting [^3 H]-GABA binding by >50%.

[1] = target: prejunctional GABAB receptors (Cavia porcellus, UniProt A0A286X9P6); experiment: In Vitro Assay (guinea pig trachea, reversal of baclofen inhibition of EFS-induced contractions); format: cell-based, guinea pig (male Hartley); details: 30 μmol/L baclofen; for IC30: guinea pig trachea
Sequence of prejunctional GABAB receptors (A0A286X9P6 30-844): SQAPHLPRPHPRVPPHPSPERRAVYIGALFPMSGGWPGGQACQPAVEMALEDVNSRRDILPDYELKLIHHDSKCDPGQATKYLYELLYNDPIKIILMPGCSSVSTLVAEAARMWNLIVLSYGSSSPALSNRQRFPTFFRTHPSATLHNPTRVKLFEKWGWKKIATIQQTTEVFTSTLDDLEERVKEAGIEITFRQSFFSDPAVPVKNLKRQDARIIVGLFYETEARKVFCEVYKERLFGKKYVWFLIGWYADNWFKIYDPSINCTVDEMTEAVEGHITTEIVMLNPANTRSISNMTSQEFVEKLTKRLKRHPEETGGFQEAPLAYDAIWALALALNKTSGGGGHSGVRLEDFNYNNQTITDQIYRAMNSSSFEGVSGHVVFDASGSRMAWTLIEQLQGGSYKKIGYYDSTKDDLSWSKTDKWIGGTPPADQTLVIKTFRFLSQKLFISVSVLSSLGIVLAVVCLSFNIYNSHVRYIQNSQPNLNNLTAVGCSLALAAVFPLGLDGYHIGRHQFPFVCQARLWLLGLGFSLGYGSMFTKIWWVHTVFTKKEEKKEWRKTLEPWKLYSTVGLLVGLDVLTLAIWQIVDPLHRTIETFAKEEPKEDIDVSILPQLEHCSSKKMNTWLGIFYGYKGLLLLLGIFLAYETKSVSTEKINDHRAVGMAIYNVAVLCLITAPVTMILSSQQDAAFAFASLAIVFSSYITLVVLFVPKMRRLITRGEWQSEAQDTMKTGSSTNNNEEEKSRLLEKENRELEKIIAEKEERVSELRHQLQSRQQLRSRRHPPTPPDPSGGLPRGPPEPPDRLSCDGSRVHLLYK
Sequence of prejunctional GABAB receptors (H0V741 1-820 partner): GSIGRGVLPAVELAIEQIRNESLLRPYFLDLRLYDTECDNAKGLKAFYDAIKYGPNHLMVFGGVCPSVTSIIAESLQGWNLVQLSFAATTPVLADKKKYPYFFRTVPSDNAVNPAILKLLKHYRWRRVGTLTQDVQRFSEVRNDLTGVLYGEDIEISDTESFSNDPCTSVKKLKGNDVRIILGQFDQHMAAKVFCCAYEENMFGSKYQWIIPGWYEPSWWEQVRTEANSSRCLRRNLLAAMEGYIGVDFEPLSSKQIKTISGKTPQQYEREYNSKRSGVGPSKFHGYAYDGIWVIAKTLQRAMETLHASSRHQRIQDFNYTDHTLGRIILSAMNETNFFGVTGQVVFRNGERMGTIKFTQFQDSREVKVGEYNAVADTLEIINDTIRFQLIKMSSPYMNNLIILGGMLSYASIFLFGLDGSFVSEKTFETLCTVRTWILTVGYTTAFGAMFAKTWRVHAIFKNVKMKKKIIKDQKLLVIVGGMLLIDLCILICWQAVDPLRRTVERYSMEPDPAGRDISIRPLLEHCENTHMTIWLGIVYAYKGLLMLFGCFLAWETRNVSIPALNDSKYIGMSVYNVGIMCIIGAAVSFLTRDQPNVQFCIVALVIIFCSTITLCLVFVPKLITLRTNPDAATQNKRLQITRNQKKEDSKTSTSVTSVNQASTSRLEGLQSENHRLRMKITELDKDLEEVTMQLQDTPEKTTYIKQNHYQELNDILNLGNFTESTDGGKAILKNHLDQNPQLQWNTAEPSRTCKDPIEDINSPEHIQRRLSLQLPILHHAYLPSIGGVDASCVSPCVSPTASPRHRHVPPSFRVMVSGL
Procedure: Male Hartley guinea pigs (450-650 g) are sacrificed by stunning and the trachea removed proximal to the carina and cut into 5 mm segments. The segments are attached to isometric force displacement transducers (Model FT03: Grass Instruments) and suspended in 15 mL organ baths filled with low Ca^2+ (0.6 mmol/L) Tyrode's buffer solution (pH 7.4) supplemented with 5.6 mmol/L glucose, 30 μmol/L choline and 2 μmol/L indomethacin. The solution is bubbled with a mixture of 95% O2 +5% CO2 and maintained at 37° C. The tracheal segments are allowed to equilibrate for 90 minutes under a resting tension of 0.5 g.
Platinum electrodes are placed on either side of the trachea and electrical field stimulation (EFS) (20 V, 8 Hz, 0.5 ms pulse for 5 s) was generated each minute from an electrical stimulator (Model S-88: Grass Instruments) and delivered to the electrodes through a stimulus distributor (Buxco Electronics). The stimulation parameters are chosen as appropriate for producing cholinergic contractions of the trachea that are sensitive to the inhibitory effects of compounds acting at prejunctional GABAB receptors. Contractile responses were recorded on a polygraph (Harvard Apparatus). The compound to be tested is added to the bath 10 min. before addition of 30 μmol/L baclofen. The effect of baclofen treatment in the absence or in the presence of the compound to be tested is expressed as a percent inhibition of EFS-induced contractions.

GABAB = details: literature, in words; cited from earlier work
[2] = system: Respiratory Depressant Effect of Baclofen; experiment: Inhibition of Respiratory Depressant Effect of Baclofen; format: in vivo, guinea pig; details: baclofen alone (3 mg/kg, sc)
Procedure: (§1) Animal Model for Respiratory Depression:
Place unanesthetized guinea pigs in a head-out plethysmograph and expose to a CO2 enriched gas mixture (10% CO2, 21% O2, 69% N2) for 10 min., (see Danko, et al., J. Pharm. Methods, 19, 165-173 (1988)). Plethysmograph pressure is detected with a transducer connected to a chart recorder. Minute ventilation is calculated as the product of tidal volume and respiratory frequency. The compound to be tested is administered orally, subcutaneously (sc), intraperitoneally (ip) or via an intracerebroventricular route (icv). Baclofen (3 mg/kg, sc) was given 30 min before exposure to the CO2 enriched gas. […] A 40 or 30 min. preteratment is used for the subcutaneous and intraperitoneal routes, respectively. The vehicle for oral, sc or ip administration is saline. For icv administration, single icv cannulae are placed in the lateral ventricle of anesthetized guinea pigs, (see McLeod, et al., Eur. J. Pharmacol., 209, 141-142 (1988)). The animals are allowed to recover approximately one week prior to use for ventilation experiments. The vehicle for icv administration is artificial cerebrospinal fluid (CSF).

[3] = system: Respiratory Depressant Effect of Baclofen; experiment: Reversal of the Respiratory Depressant Effect of Baclofen via icv Administration; format: in vivo, guinea pig; details: baclofen plus vehicle
Procedure: as §1
Place unanesthetized guinea pigs in a head-out plethysmograph and expose to a CO2 enriched gas mixture (10% CO2, 21% O2, 69% N2) for 10 min., (see Danko, et al., J. Pharm. Methods, 19, 165-173 (1988)). Plethysmograph pressure is detected with a transducer connected to a chart recorder. Minute ventilation is calculated as the product of tidal volume and respiratory frequency. The compound to be tested is administered orally, subcutaneously (sc), intraperitoneally (ip) or via an intracerebroventricular route (icv). Baclofen (3 mg/kg, sc) was given 30 min before exposure to the CO2 enriched gas. When given by the oral route, the compounds is administered 1, 3, 5 or 7 h before exposure to CO2 enriched gas. A 40 or 30 min. preteratment is used for the subcutaneous and intraperitoneal routes, respectively. The vehicle for oral, sc or ip administration is saline. For icv administration, single icv cannulae are placed in the lateral ventricle of anesthetized guinea pigs, (see McLeod, et al., Eur. J. Pharmacol., 209, 141-142 (1988)). The animals are allowed to recover approximately one week prior to use for ventilation experiments. The vehicle for icv administration is artificial cerebrospinal fluid (CSF).

[4] = literature (Olpe, et al), in words; cited from earlier work
[5] = 5 nM [3H]GABA, rat brain synaptosomes, 20° C., 30 min

T1 sequence (Q9Z0U4 17-960 limits assumed): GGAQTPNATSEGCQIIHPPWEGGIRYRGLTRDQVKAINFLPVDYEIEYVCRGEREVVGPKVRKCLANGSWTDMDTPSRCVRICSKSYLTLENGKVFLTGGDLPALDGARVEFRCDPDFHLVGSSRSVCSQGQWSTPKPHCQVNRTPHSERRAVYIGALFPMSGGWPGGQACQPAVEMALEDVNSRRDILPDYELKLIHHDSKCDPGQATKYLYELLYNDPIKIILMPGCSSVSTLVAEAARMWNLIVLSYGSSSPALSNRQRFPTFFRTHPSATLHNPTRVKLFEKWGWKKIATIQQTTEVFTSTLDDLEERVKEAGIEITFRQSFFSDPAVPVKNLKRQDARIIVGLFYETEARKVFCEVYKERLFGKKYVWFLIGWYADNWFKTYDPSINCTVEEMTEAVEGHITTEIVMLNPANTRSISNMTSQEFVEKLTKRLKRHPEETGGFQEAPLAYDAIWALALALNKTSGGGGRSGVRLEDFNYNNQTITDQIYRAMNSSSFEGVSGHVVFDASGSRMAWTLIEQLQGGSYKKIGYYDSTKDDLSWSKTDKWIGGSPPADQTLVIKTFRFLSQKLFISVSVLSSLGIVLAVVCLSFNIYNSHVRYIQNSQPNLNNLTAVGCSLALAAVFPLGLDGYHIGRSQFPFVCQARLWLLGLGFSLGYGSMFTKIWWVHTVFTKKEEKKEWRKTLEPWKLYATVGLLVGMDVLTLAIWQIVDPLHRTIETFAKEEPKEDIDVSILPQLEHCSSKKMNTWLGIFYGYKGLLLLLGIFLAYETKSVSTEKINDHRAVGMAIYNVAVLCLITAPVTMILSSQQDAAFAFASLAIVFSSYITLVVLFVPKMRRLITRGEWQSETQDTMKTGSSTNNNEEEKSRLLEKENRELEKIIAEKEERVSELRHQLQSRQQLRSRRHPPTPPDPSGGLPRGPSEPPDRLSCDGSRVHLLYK
T1 sequence (O88871 41-940 partner): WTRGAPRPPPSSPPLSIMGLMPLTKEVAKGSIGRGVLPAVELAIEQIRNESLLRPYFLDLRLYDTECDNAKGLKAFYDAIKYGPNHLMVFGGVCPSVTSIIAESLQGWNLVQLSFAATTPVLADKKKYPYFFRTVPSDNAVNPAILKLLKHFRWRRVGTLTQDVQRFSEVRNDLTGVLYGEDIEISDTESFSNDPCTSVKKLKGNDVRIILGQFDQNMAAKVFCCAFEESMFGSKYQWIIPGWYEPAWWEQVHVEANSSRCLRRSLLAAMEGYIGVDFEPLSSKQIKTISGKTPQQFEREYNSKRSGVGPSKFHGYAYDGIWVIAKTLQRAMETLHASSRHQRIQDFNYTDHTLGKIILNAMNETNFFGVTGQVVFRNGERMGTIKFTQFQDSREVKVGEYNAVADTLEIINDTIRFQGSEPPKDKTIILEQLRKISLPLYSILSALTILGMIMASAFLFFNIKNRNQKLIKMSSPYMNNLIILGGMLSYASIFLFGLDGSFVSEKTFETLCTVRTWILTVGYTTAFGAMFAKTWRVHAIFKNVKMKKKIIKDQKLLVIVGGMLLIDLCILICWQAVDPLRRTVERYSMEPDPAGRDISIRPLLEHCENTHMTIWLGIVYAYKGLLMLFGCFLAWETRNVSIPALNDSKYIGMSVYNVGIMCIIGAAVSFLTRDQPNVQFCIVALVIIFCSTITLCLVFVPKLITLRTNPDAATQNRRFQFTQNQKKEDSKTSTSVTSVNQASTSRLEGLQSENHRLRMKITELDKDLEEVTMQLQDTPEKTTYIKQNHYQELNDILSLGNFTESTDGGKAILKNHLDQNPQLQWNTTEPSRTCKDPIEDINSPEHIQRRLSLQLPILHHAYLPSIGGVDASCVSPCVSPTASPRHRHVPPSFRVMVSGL

SMILES	IC50 (GABAB receptors; [5]) [µM]	inhibition at 100 µM ([1]; 100 μM) [%]	inhibition at 300 µM [1] [%]	other results
O=C(O)CC1CNCCO1 (stereo not drawn)	50	59	46	–
CC1CNCC(CC(=O)O)S1 (stereo not drawn)	> 100	21	–	–
CC[C@@H]1CO[C@H](CC(=O)O)CN1	100	50	–	–
CC[C@H]1CO[C@H](CC(=O)O)CN1	> 100	17	–	–
CC1(C)COC(CP(C)(=O)O)CN1 (stereo not drawn)	2	100	–	IC30 [1]: 1.9 µM
CP(=O)(O)CC1CNC2(CCCC2)CO1 (stereo not drawn)	3	–	–	IC30 [1]: 3.3 µM
C[C@H]1CS[C@@H](CC(=O)O)CN1 (relative stereo) [Example 13B]	60	55	–	–
C[C@@H]1CS[C@@H](CC(=O)O)CN1 (relative stereo) [Example 13C]	20	81	88	–
C[C@@H]1CO[C@@H](CC(=O)O)CN1 (relative stereo) [Example 14A]	30	63	75	–
C[C@H]1CO[C@@H](CC(=O)O)CN1 (relative stereo) [Example 14]	20	74	95	–
CC[C@]1(CO)CO[C@@H](CC(=O)O)CN1 (relative stereo) [Example 18]	100 ± 40	50	–	–
CC[C@@]1(CO)CO[C@@H](CC(=O)O)CN1 (relative stereo) [Example 19]	19 ± 10	90	99	–
C[C@]1(CO)CO[C@@H](CC(=O)O)CN1 (relative stereo) [Example 20]	3.8	–	–	inhibition at 30 µM ([1]; 30 μM): 24%
C[C@@]1(CO)CO[C@@H](CC(=O)O)CN1 (relative stereo) [Example 21]	–	–	–	IC30 [1]: 0.85 µM
CC1(C)COC(CC(=O)O)CN1 (single isomer, unassigned) [Example 6B]	> 100	–	42	In Vitro % inhibition ([1]; 100 μM): 8%
NCC(O)(CS(=O)(=O)O)c1ccc(Cl)cc1 (stereo not drawn) [2-hydroxy saclofen]	–	–	–	GABAB receptor affinity (GABAB): low affinity
NCC(CC(=O)O)c1ccc(Cl)cc1 (stereo not drawn) [Baclofen, reference compound]	–	–	–	Inhibition of ventilation [2]: 44-60%; Inhibition of ventilation [3]: 82 ± 5%
CCOC(OCC)P(=O)(O)CCCN [CGP 35348, 3-aminopropyl(diethoxymethyl)phosphinic acid]	–	–	–	GABAB receptor affinity (GABAB): low receptor affinity (comparable to 2-hydroxy saclofen); Penetration of the blood/brain barrier [4]: can penetrate the blood/brain barrier
CC1(C)COC(CC(=O)O)CN1 (stereo not drawn) [Example 2]	6	96	100	IC30 [1]: 1.5 µM
O=C(O)CC1CNC2(CC2)CO1 (stereo not drawn) [Example 9A]	37 ± 12	76	–	–
O=C(O)CC1CNC2(CCCC2)CO1 (stereo not drawn) [Example 9]	10	95	97	–
CC[C@@H]1CO[C@@H](CC(=O)O)CN1 [Example 11]	14	82	95	–
O=C(O)CC1CNCCS1 (stereo not drawn) [Example 16]	–	44	–	IC50 (GABAB receptors; unit inferred): > 100 µM
CP(=O)(O)CC1CN(Cc2ccccc2)CCO1 (stereo not drawn) [Example 23]	> 100	31	–	–
CP(=O)(O)CC1CNCCO1 (stereo not drawn) [Example 24]	6	100	98	–
